The values that follow come from patent US8476036B2, “Nonluminogenic assay for living cells” (Promega Corporation, priority 2004, dated 2013).

Marks after values point to notes of the source that are not given here. Numbered stars: 1 amine (or outer) side, 2 acyl side, 3 side chain; on linkers, the order of the positions; unused ones are H or OH. Peptide text beside a SMILES is read from it. * marks the point of attachment. X1 = O=C(O)C1CSC(c2nc3ccc(N*)cc3s2)=N1; AMC = Cc1cc(=O)oc2cc(N*)ccc12; Suc = O=C(CCC(=O)[*:2])[*:1]; Cbz = O=C(OCc1ccccc1)*

Holding throughout (type): cell-based
Data set [1] has as its system HL-60 or Jurkat. The data set is described as follows: Protease retention substrate selectivity, untreated viable cells. Also on record: key: None denotes no statistical activity above control population.; (+) to (+++++) denotes the range of activity above control population from modest to robust; (+) to (+++++) denotes the range of activity above control population from modest to robust; (+) to (+++++) denotes the range of activity above control population from modest to robust; (+) to (+++++) denotes the range of activity above control population from modest to robust; (+) to (+++++) denotes the range of activity above control population from modest to robust. Conditions: substrate cleavage activity above control in untreated viable cells; 15-30 minutes at 37° C. An excerpt: (§1) Ala-Ala-Phe-AMC was obtained from Promega. Z-Leu-Leu-Val-Tyr-aminoluciferin (LLVY corresponds to SEQ ID NO:18), Z-Leu-Arg-aminoluciferin, Z-Phe-Arg-aminoluciferin, Ala-Ala-Phe-aminoluciferin, (Ala-Ala-Phe)2-R110, and (Gly-Phe)2-R110 were synthesized by Promega Biosciences. Suc-Ala-Ala-Phe-AMC, H-Phe-AMC, H-Tyr-AMC, Glutyl-Ala-Ala-Phe-AMC (EMF corresponds to SEQ ID NO:32), H-Gly-Phe-AMC, Z-Gly-Ala-Met-AMC, Suc-Leu-Leu-Val-Tyr-AMC (LLVY corresponds to SEQ ID NO:18), D-Ala-Leu-Lys-AMC, H-Gly-Ala-AMC, H-Gly-Gly-AMC, Suc-Ala-Ala-Phe-AMC, Z-Arg-Leu-Arg-Gly-Gly-AMC (RLRGG corresponds to SEQ ID NO:29), Z-Leu-Arg-Gly-Gly-AMC (LRGG corresponds to SEQ ID NO:30) and Ac-Ala-Ala-Tyr-AMC were sourced from Bachem. Gly-Phe-AFC, Pro-Phe-Arg-AMC, Gly-Gly-Leu-AMC, and Ser-Tyr-AFC were obtained from Calbiochem. Z-Phe-Arg-AMC and Suc-Arg-Pro-Phe-His-Leu-Leu-Val-Tyr-AMC (RPHLLVY corresponds to SEQ ID NO:31) were purchased from Sigma.
(§2) All substrates were solubilized in DMSO from 10 to 100 mM depending upon inherent solubility. Fluorescent substrates were diluted to 100 μM to 1 mM in 10 mM Hepes, pH 7.5 or matched cell culture medium with 10% serum and added in 1/10th volumes to lysed (freeze fractured, sonicated, or detergent) or untreated viable cells in white-walled, clear bottomed 96-well plates. HL-60 or Jurkat were used in the experimentation interchangeably because of their easily manipulated suspension phenotype. Plates were incubated for 15-30 minutes at 37° C. prior to measuring fluorescence by the CYTOFLUOR® II.
(§3) Luminescent substrates were added to a luciferin detection cake (Promega V859A) resuspended in 2 ml 10 mM Hepes, pH 7.5 to 500 μM. ⅕^th volume of the proluminescent reaction mixes were added to lysed (freeze fractured, sonicated, or detergent) or untreated viable cells in white-walled, clear bottomed 96-well plates. Again, HL-60 or Jurkat were used in the experimentation interchangeably. Plates were incubated at 37° C. in a MeCour' circulating heat block controlled by a Caron 2050W exchange unit. Luminescence was measured between 15 and 30 minutes (signal steady state).
(§4) A broad variety of proteolytic substrates were examined in an effort to characterize potential substrate preferences for protease release or retention in compromised or viable cells (see Table 4). […] Non-blocked substrates (H- and the like) were examined to include the contribution of aminopeptidase activities. From this panel, at least three proteolytic profiles emerged: an aminopeptidase-like activity preferring unblocked Ala-Ala-Phe tripeptide, a proteosomal (chymotrypsin-like) activity measured by release of blocked Leu-Leu-Val-Tyr (SEQ ID NO:18) peptides, and an exceedingly labile activity by Gly-Phe, Gly-Ala, Phe-, Tyr- or Gly-Gly-Leu substrates. The latter activities were only measurable in viable, intact cells. Of further significance is that several fluorophores or proluminescent labels can be used to detect these activities, ultimately allowing for enhanced downstream multiplexing flexibility.

The subject of data set [2] is HL-60 or Jurkat. Briefly: Protease release substrate selectivity, lysed (freeze fractured, sonicated, or detergent) cells. Also on record: key: None denotes no statistical activity above control population.; (+) to (+++++) denotes the range of activity above control population from modest to robust; (+) to (+++++) denotes the range of activity above control population from modest to robust; (+) to (+++++) denotes the range of activity above control population from modest to robust; (+) to (+++++) denotes the range of activity above control population from modest to robust; (+) to (+++++) denotes the range of activity above control population from modest to robust. Conditions: substrate cleavage activity above control in lysed cells; 15-30 minutes at 37° C.
Source text: as §1, §2, §3, §4

The test system of data set [3] is Jurkat cells. Briefly: Protease retention assay formats with different peptide sequences and reporters. Conditions: viable versus lysed cells. The procedure: Actively doubling Jurkat cells were serially diluted from 37,500 cells/well in RPMI 1640+10% FBS in a white-walled, clear bottomed 96 well plate in 100 μl volumes. The cells in half of the plate were lysed with the addition of Triton X to 0.2% final. The other half of the plate wells received a matched volume (5 μl) of water vehicle. Tyr-AMC, Phe-AMC and Gly-Phe-AFC were all rehydrated in DMSO to 100 mM then diluted in RPMI 1640 to 1 mM. 1/10th volume of diluted substrates were added to the wells, mixed briefly by orbital shaking then incubated at 37° C. in 5% CO2 for up to 1.5 hours. Resulting fluorescence was measured at Ex. 360 Em. 460 and Ex. 405 and Em. 500 at 30 and 90 minutes.

Data set [4] concerns HL-60 cells. The data set is described as follows: Luminescent protease release assay with different enzyme targets. To be noted: HL-60 with or without sonication, 15 minutes at 37° C. Here is the method:
Actively doubling HL-60 cells were adjusted to 100,000 cells/ml and split into two aliquots. One aliquot was sonicated using a microtip MISONIXTM™ 3000 with 30% power for three 5 second pulses. The other aliquot was held at 37° C. The cell suspension and lysates were then two-fold serially diluted in RPMI 1640 +10% FBS in 100 μl volumes. Medium only served as the no cell control. A luciferin detection reagent cake (Promega V859A) was resuspended with 2.0 ml of 10 mM Hepes, pH 7.5. The luciferin detection reagent was then divided and made 1 mM with either Z-Leu-Leu-Val-Tyr-aminoluciferin (LLVY corresponds to SEQ ID NO:18) or Ala-Ala-Phe-aminoluciferin. Each reagent was added to independent replicates of the plate in 1/10th volumes and allowed to incubate for 15 minutes at 37° C. in the Me'Cour thermal jacketed water bath holder before luminescence measurement using the BMG FLUOstar Optima.

For data set [5], the system named is SK-MEL-28 cells. The data set is described as follows: Live cell protease retention multiplexed with caspase 3/7 activity, SK-MEL-28. To be noted: SK-MEL-28, serial dilutions, 5 hours. Here is the method: (§5) SK-MEL-28 or ACHN cells were seeded into white-walled, clear bottomed 96 well plates at a density of 10,000 cells per well in 100 μl volumes and allowed to attach at 37° C. in 5% CO2 for a period of 2 hours. After attachment, 50 μl of medium was carefully removed and replaced with serial dilutions of either ionomycin or staurosporine in MEM+10% FBS. Medium only served as control. The plate was incubated for an additional 5 hours. A 1 mM solution of Gly-Phe-AFC was made in MEM and added to the wells in a 1/10th volume. Resulting fluorescence was measured using a CYTOFLUOR® II. Caspase-GIo™ 3/7 reagent was then added and luminescence measure using a BMG FLUOstar Optima.

The test system of data set [6] is ACHN cells. Briefly: Live cell protease retention multiplexed with caspase 3/7 activity, ACHN. To be noted: serial dilutions, 5 hours. Here is the method: as §5

Consider `NCC(=O)N[C@@H](Cc1ccccc1)C(=O)Nc1ccc2c(c1)Oc1cc(NC(=O)[C@H](Cc3ccccc3)NC(=O)CN)ccc1C21OC(=O)c2ccccc21` [(Gly-Phe)2 R110, (Gly-Phe)2-R110], for which the Retention entry in data set [1] is listed as “None”. Besides, the Release result in data set [2] is reported as “None”. In addition, the “Suitability as live cell protease retention substrate” value in data set [3] is on record as “apparently unable to effectively traverse the cell membrane or was not effectively cleaved by the candidate protease”.
For `Cc1cc(=O)oc2cc(NC(=O)CNC(=O)CNC(=O)[C@H](CCCN=C(N)N)NC(=O)[C@H](CC(C)C)NC(=O)[C@H](CCCN=C(N)N)NC(=O)OCc3ccccc3)ccc12` [Z-Arg-Leu-Arg-Gly-Gly-AMC], in data set [1], the Retention result was “None”. In addition, the Release result in data set [2] is given as “None”.
On to `CSCC[C@H](NC(=O)[C@H](C)NC(=O)CNC(=O)OCc1ccccc1)C(=O)Nc1ccc2c(C)cc(=O)oc2c1` [Z-Gly-Ala-Met-AMC] (Cbz-Gly-Ala-Met-{AMC}), for which the Retention result in data set [1] is recorded as “None”. In addition, the Release result in data set [2] is on record as “None”.
Consider `Cc1cc(=O)oc2cc(NC(=O)[C@H](CC(C)C)NC(=O)CNC(=O)CNC(=O)OCc3ccccc3)ccc12` [Z-Gly-Gly-Leu-AMC] (Cbz-Gly-Gly-Leu-{AMC}), for which the Retention entry in data set [1] is on record as “++*”. Moreover, the Release result in data set [2] is “None”.
For `CC(C)C[C@H](NC(=O)OCc1ccccc1)C(=O)N[C@@H](CCCNC(=N)N)C(=O)Nc1ccc2nc(C3=N[C@@H](C(=O)O)CS3)sc2c1` [Z-Leu-Arg-Aluc, Z-Leu-Arg-aminoluciferin] the same measures were “None” and “None”.
The matching figures for `Cc1cc(=O)oc2cc(NC(=O)CNC(=O)CNC(=O)[C@H](CCCN=C(N)N)NC(=O)[C@H](CC(C)C)NC(=O)OCc3ccccc3)ccc12` [Z-Leu-Arg-Gly-Gly-AMC] (Cbz-LRGG-{AMC}): “None” and “None”.
Turning to `CC(C)CC(NC(=O)OCc1ccccc1)C(=O)NC(CC(C)C)C(=O)NC(C(=O)NC(Cc1ccc(O)cc1)C(=O)Nc1ccc2nc(C3=NC(C(=O)O)CS3)sc2c1)C(C)C` (stereo not drawn) [Z-Leu-Leu-Val-Tyr-Aluc, Z-Leu-Leu-Val-Tyr-aminoluciferin] (Cbz-LLVY-X1; configuration not given here), the “Performance as protease release substrate” value in data set [4] is reported as “performed less optimally than the AAF-aminoluciferin sequence”. In addition, in data set [1], the Retention entry is listed as “None”. Moreover, the Release entry in data set [2] is “++”.
`Cc1cc(=O)oc2cc(NC(=O)C(CCCN=C(N)N)NC(=O)C(Cc3ccccc3)NC(=O)OCc3ccccc3)ccc12` (stereo not drawn) [Z-Phe-Arg-AMC] (Cbz-Phe-Arg-{AMC}; configuration not given here): in data set [1], the Retention result is listed as “None^1”. The Release result in data set [2] was “None”.
In the case of `N=C(N)NCCCC(NC(=O)C(Cc1ccccc1)NC(=O)OCc1ccccc1)C(=O)Nc1ccc2nc(C3=NC(C(=O)O)CS3)sc2c1` (stereo not drawn) [Z-Phe-Arg-Aluc, Z-Phe-Arg-aminoluciferin], the Retention result in data set [1] is reported as “None”. For the same molecule, the Release entry in data set [2] was “None”.
With `C[C@H](CCC(=O)O)C[C@H](C)C[C@H](C)C(=O)/C=C(\O)[C@H](C)C[C@H](C)C/C=C/[C@@H](C)[C@@H](O)[C@@H](C)[C@@H](O)C[C@@H]1CC[C@@](C)([C@H]2CC[C@@](C)([C@@H](C)O)O2)O1` [ionomycin], the “Cytotoxicity profile (live cell fluorescence and caspase 3/7 activity)” value in data set [5] is “necrotic-type profile”.
Consider `CN[C@@H]1C[C@H]2O[C@@](C)([C@@H]1OC)n1c3ccccc3c3c4c(c5c6ccccc6n2c5c31)C(=O)NC4` [staurosporine], for which the “Cytotoxicity profile (live cell fluorescence and caspase 3/7 activity)” value in data set [5] is listed as “caspase activation (and therefore apoptosis induction) is evident”; in data set [6], “apoptotic profile”.
As to “Suc-RPFHLLVY-{AMC} [S-R-P-F-H-L-L-V-Y-AMC]”, in data set [1], the Retention entry was “None”. Moreover, the Release result in data set [2] is recorded as “None”.
